The source of these data is patent publication US20100172845A1, “COMPOSITIONS AND METHODS FOR TREATING MYCOBACTERIAL INFECTIONS” (BOARD OF REGENTS OF THE UNIVERSITY OF TEXAS SYSTEM, priority 2007, published 2010).

Each structure is given as a SMILES string. “Also recorded” adds a separate entry of the source.

The subject of one series is Erdman strain of MTB. The experiment in a line: Effect of surfactants on corded state and number of MTB in vitro (microscopy, acid-fast staining). As to conditions: for bactericidal action on MTB: 1% (wt/vol.), OG 24 hr, DDM 2 hr. The series is classed as cell-based, Mycobacterium tuberculosis.
A further series concerns MTB. The experiment in a line: Growth of MTB in the presence of surfactant. To be noted: 0.3% surfactant. Format: cell-based, Mycobacterium tuberculosis.
For series [1] the following is noted: mouse, in vivo.
The mark [2] stands for this setting: 1% (wt/vol.) surfactant, 30 min exposure.
Setting [3] is: 1% (wt/vol.) surfactant, 2 hr exposure.

`CCCCCCCCO[C@@H]1O[C@H](CO)[C@@H](O)[C@H](O)[C@H]1O` [OG, n-octyl-β-D-glucoside]: in the series on Erdman strain of MTB (setting [2]), the “number of bacteria in the background (higher power view)” value is reported as “significant loss in the number of bacteria in the background” and the “reversal of aggregation / number of cords of MTB” value is “major reduction in the number of the cords; also recorded: rapidly reversed aggregation of MTB”. Further, the “decrease in the corded state of MTB” value in the series with Erdman strain of MTB (1% (wt/vol.) surfactant, 24 hr incubation) is “more pronounced”. Further, the “bacteria eliminated (50× image)” value with Erdman strain of MTB (1% (wt/vol.) surfactant, within 24 hours of treatment) was “over 90%”. The “bactericidal action on MTB” value in the series on Erdman strain of MTB is listed as “acts as a bacteriocide; also recorded: bactericidal”. Further, the “growth of MTB and mycolic acid coat” value with MTB is “will grow in the presence of 0.3% OG but are not surrounded by their extensive coat of mycolic acid”. Besides, in series [1], the “body weight versus control animals” value is reported as “no difference in the body weight”; the “histological examination of spleens and livers” value is listed as “did not reveal any visible changes”; the “histopathological differences of lung, liver and spleen tissues versus control” value is on record as “no identifiable histopathological differences”; the “leukocyte count and cytologic composition of the lavage fluid” value is “no change were found”. Besides, the “tolerability by the lungs” value in series [1] is recorded as “well tolerated by the lungs”.

In the case of `CCCCCCCCCCCCO[C@@H]1O[C@H](CO)[C@@H](O[C@H]2O[C@H](CO)[C@@H](O)[C@H](O)[C@H]2O)[C@H](O)[C@H]1O` [DDM, n-dodecyl-β-D-maltoside], in the series on Erdman strain of MTB (setting [3]), the elimination of bacteria entry was “elimination of most of the bacteria” and the “loss / reduction of cording of MTB” value is on record as “reduce cording to a similar extent of OG after 24 hr exposure; also recorded: rapid loss of cording”. Also, the “bactericidal action on MTB” value in the series on Erdman strain of MTB is “bactericidal”. Besides, in series [1], the “body weight versus control animals” value is given as “no difference in the body weight”; the “histological examination of spleens and livers” value is listed as “did not reveal any visible changes”; the “histopathological differences of lung, liver and spleen tissues versus control” value is on record as “no identifiable histopathological differences”; the “leukocyte count and cytologic composition of the lavage fluid” value was “no change were found”. For the same compound, the “tolerability by the lungs” value in series [1] was “well tolerated by the lungs”.

As to `CCCCCCCCCCCCCCCC(=O)OC[C@H](COP(=O)([O-])OCC[N+](C)(C)C)OC(=O)CCCCCCCCCCCCCCC` [DPPC, 1,2-dipalmitoyl-sn-3-glycerophosphoryl choline, reference compound], in the series on Erdman strain of MTB (1% surfactant, over the time period of the study), the “reversal of cording of corded MTB preparation” value is given as “did not reverse cording”.
